Laboratory results from ChEMBL document CHEMBL1138430, “Novel tetrahydroisoquinolines are histamine H3 antagonists and serotonin reuptake inhibitors” (Bioorg Med Chem Lett, 2007).
Calls of active or inactive are those of the source.

Tests used:
[1] = target: T1, Substance-K receptor (Homo sapiens) (UniProt P21452); test: Binding affinity at NK2 receptor at 1 uM
T1 sequence (whole entry): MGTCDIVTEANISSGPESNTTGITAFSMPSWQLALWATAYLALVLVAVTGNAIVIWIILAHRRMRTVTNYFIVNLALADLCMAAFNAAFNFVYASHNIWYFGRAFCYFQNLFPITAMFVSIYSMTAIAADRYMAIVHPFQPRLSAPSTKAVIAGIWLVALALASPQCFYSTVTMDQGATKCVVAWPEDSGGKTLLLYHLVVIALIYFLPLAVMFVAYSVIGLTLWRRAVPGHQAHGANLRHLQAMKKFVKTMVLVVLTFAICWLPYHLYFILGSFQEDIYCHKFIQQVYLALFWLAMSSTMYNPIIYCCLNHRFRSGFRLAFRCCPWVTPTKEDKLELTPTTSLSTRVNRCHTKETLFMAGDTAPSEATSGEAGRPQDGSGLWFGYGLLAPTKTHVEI

[2] = target: D(2) dopamine receptor (Homo sapiens) (UniProt P14416); test: Binding affinity at dopamine D2 receptor at 1 uM
Chain of D(2) dopamine receptor (Homo sapiens) (P14416 whole entry): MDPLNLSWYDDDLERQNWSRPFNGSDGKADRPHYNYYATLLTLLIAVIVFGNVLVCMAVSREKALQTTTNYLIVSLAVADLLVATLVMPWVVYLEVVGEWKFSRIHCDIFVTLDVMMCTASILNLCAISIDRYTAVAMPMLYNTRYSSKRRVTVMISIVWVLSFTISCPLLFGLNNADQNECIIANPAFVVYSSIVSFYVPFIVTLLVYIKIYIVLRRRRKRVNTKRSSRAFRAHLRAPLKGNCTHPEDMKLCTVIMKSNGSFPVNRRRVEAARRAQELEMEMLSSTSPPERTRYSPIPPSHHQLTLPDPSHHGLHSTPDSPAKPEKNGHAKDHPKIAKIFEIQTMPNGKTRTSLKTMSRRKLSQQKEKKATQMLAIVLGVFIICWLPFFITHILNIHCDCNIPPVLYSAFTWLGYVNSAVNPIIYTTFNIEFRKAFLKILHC

[3] = target: T2, Galanin receptor type 2 (Homo sapiens) (UniProt O43603); test: Binding affinity at galanin 2 receptor at 1 uM
T2 sequence (whole entry): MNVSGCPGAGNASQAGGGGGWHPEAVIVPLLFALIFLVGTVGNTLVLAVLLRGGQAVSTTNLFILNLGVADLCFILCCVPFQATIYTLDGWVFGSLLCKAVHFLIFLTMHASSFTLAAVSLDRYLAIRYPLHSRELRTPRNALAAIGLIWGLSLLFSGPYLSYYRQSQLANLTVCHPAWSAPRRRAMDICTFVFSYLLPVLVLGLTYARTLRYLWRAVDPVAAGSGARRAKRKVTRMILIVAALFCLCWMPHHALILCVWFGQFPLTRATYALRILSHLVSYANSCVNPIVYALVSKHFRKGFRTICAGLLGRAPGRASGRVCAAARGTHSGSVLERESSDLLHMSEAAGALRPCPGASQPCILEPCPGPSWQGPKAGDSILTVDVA

[4] = target: T3, Neuromedin-K receptor (Homo sapiens) (UniProt P29371); test: Binding affinity at NK3 receptor at 1 uM
T3 sequence (whole entry): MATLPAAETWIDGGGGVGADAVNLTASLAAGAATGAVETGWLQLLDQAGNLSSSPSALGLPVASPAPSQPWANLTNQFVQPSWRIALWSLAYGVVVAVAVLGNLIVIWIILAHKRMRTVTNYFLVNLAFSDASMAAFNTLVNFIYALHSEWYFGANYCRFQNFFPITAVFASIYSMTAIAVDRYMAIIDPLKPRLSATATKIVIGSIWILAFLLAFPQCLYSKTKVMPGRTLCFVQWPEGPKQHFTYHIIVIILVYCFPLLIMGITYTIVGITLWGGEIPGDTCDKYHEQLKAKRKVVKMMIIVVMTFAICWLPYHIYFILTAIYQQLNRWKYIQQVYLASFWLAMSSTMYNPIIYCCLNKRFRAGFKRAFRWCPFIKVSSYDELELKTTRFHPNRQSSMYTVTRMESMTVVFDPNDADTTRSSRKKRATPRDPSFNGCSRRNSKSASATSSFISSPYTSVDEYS

[5] = target: T4, B2 bradykinin receptor (Homo sapiens) (UniProt P30411); test: Binding affinity at bradykinin B2 receptor at 1 uM
T4 sequence (whole entry): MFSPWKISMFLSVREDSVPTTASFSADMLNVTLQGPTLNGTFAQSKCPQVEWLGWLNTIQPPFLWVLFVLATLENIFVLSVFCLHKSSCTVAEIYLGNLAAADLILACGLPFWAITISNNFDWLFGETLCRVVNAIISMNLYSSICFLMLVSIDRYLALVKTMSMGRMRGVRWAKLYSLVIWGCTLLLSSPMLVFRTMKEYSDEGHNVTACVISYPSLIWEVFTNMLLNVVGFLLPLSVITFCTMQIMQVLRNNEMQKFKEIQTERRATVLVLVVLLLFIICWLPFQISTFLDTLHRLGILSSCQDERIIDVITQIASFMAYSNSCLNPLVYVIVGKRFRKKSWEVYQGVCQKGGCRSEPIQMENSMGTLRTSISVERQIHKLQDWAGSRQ

[6] = target: T5, Adenosine receptor A1 (Homo sapiens) (UniProt P30542); test: Binding affinity at adenosine A1 receptor at 1 uM
T5 sequence (whole entry): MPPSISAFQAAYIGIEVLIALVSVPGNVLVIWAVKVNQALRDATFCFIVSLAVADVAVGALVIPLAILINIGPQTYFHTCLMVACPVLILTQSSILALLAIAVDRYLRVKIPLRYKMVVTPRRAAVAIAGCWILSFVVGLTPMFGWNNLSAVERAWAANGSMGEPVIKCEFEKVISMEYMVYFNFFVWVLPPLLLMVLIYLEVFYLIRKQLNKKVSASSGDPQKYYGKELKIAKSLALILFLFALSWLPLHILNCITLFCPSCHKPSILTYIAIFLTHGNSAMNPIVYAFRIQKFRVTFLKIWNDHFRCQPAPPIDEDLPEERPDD

[7] = target: Vasopressin V1a receptor (Homo sapiens) (UniProt P37288); test: Binding affinity at vasopressin V1a receptor at 1 uM
Chain of Vasopressin V1a receptor (Homo sapiens) (P37288 whole entry, looked up): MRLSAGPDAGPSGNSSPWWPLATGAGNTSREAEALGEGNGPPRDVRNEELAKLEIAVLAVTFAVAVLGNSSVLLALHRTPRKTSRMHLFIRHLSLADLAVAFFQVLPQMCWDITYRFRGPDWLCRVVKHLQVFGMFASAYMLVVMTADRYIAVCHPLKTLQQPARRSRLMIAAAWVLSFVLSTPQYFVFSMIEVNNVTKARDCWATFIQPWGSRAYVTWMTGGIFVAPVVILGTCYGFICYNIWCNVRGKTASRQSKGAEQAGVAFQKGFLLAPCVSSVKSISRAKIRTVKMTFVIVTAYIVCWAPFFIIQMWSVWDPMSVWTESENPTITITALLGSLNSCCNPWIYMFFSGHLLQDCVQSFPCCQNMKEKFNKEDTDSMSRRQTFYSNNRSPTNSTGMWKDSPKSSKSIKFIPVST

[8] = target: 5-hydroxytryptamine receptor 6 (Homo sapiens) (UniProt P50406); test: Binding affinity at 5HT6 receptor at 1 uM
Chain of 5-hydroxytryptamine receptor 6 (Homo sapiens) (P50406 whole entry): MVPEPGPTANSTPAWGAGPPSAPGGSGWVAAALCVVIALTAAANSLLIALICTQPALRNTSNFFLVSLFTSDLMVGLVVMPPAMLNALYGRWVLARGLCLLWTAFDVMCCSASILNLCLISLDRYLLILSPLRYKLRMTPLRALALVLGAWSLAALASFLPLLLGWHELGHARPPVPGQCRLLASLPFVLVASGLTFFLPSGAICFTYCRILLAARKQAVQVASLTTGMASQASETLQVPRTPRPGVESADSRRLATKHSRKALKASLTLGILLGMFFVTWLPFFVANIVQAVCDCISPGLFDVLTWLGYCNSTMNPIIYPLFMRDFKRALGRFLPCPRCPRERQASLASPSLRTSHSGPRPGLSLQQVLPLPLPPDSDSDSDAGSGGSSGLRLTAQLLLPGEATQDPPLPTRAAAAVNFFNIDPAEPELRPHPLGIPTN

[9] = target: Mu-type opioid receptor (Homo sapiens) (UniProt P35372); test: Binding affinity at MOP receptor at 1 uM
Chain of Mu-type opioid receptor (Homo sapiens) (P35372 whole entry): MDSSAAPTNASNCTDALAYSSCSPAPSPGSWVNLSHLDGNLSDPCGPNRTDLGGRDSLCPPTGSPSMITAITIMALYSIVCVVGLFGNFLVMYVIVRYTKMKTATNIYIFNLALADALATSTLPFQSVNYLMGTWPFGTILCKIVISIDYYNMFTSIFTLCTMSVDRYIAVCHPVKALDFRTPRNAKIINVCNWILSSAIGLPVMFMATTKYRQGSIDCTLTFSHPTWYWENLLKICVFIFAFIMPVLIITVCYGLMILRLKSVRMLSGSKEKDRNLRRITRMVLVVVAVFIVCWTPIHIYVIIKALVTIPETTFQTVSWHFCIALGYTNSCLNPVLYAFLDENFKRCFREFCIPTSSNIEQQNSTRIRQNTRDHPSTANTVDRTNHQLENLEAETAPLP

[10] = target: Delta-type opioid receptor (Homo sapiens) (UniProt P41143); test: Binding affinity at DOP receptor at 1 uM
Chain of Delta-type opioid receptor (Homo sapiens) (P41143 whole entry): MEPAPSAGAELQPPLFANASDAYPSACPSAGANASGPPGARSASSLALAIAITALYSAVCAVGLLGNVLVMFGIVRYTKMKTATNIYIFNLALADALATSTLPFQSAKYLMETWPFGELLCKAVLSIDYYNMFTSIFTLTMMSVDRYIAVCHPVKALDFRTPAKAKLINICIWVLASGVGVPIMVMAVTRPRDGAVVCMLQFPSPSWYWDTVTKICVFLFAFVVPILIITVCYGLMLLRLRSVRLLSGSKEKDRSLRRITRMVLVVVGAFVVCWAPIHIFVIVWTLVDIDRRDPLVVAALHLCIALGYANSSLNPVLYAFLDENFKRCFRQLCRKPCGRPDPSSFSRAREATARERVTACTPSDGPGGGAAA

[11] = target: 5-hydroxytryptamine receptor 2A (Homo sapiens) (UniProt P28223); test: Binding affinity at 5HT2A receptor at 1 uM
Chain of 5-hydroxytryptamine receptor 2A (Homo sapiens) (P28223 whole entry): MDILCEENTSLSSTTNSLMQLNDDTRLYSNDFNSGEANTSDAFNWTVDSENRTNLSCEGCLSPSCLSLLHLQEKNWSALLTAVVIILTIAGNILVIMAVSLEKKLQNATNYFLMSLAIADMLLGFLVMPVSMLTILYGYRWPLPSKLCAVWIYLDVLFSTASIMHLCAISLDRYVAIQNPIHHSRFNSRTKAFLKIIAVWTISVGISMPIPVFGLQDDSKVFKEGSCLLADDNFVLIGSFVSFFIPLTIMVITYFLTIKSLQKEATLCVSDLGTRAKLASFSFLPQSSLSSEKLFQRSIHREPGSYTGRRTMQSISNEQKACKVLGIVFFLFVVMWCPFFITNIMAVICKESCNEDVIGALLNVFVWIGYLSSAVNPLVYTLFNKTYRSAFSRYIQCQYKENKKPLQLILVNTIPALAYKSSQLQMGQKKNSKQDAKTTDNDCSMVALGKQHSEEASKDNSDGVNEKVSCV

[12] = target: Muscarinic acetylcholine receptor M3 (Homo sapiens) (UniProt P20309); test: Binding affinity at muscarinic M3 receptor at 1 uM
Chain of Muscarinic acetylcholine receptor M3 (Homo sapiens) (P20309 whole entry, looked up): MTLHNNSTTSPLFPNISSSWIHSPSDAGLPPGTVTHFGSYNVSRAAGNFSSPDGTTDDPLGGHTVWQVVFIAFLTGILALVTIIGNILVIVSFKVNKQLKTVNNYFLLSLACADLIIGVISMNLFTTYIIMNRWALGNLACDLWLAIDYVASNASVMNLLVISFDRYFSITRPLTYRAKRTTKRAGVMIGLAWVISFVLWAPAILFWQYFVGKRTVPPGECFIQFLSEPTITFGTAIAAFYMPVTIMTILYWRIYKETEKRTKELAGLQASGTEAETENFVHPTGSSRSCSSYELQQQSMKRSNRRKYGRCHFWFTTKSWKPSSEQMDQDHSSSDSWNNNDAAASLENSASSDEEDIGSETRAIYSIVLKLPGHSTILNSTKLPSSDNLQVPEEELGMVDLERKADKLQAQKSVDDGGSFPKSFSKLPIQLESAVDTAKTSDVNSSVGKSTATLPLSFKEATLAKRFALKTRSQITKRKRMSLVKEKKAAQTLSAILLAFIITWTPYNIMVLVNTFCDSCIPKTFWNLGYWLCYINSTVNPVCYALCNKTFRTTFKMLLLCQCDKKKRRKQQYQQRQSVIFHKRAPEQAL

[13] = target: T6, 5-hydroxytryptamine receptor 3A (Homo sapiens) (UniProt P46098); test: Binding affinity at 5HT3 receptor at 1 uM
T6 sequence (whole entry): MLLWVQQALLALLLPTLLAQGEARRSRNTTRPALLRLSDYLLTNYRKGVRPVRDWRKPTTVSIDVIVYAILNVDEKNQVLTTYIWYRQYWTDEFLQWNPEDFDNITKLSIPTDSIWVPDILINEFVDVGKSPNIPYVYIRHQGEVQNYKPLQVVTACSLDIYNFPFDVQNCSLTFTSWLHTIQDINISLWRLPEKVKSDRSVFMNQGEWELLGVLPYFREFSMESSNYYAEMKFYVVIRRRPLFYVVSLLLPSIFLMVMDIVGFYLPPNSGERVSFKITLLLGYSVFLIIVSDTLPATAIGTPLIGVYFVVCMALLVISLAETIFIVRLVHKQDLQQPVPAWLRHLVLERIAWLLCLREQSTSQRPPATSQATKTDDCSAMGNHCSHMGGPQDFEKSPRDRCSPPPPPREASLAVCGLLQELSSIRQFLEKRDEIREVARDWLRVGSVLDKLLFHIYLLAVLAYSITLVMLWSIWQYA

Measured: Activity

COc1ccc([C@@H]2CN(C)Cc3cc(OCCCN4CCOC[C@@H]4C)ccc32)cc1
inactive: all assays above

CSc1ccc(C2CN(C)Cc3cc(OCCCN4CCC(F)CC4)ccc32)cc1 (racemic)
inactive: all assays above

CSc1ccc(C2CN(C)Cc3cc(OCCCN4CCOCC4)ccc32)cc1 (racemic)
inactive: all assays above
